The text below walks through data of PubChem BioAssay AID330 (DTP/NCI, 2004).

The assay relates to P388 leukemia ip, CD2F1 mice, survival T/C. Briefly: NCI In Vivo Anticancer Drug Screen. Data for tumor model P388 Leukemia (intraperitoneal) in CD2F1 (CDF1) mice. As to conditions: endpoint: median survival time, higher = longer survival. The essentials: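 Mice carrying the transplanted tumor received test compound or vehicle. Survival was recorded in each group, and the value is the treated-group measurement divided by that of the vehicle-treated control group.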

The mark [1] stands for this setting: dose: 100.0 mg/kg/injection, schedule: Q01DX001 (ip), vehicle: Klucel (hydroxypropylcellulose) (HPC).
[2] abbreviates: dose: 200.0 mg/kg/injection, schedule: Q01DX001 (ip), vehicle: Klucel (hydroxypropylcellulose) (HPC).
[3] abbreviates: dose: 400.0 mg/kg/injection, schedule: Q01DX001 (ip), vehicle: Klucel (hydroxypropylcellulose) (HPC).
[4] abbreviates: dose: 100.0 mg/kg/injection, schedule: Q04DX002 (ip), vehicle: saline with Tween-80.
[5] abbreviates: dose: 50.0 mg/kg/injection, schedule: Q01DX005 (ip), vehicle: saline with Tween-80.
Where [6] appears, read: dose: 100.0 mg/kg/injection, schedule: Q01DX005 (ip), vehicle: saline with Tween-80.
[7] abbreviates: dose: 200.0 mg/kg/injection, schedule: Q01DX005 (ip), vehicle: saline with Tween-80.
Where [8] appears, read: dose: 50.0 mg/kg/injection, schedule: Q01DX009 (ip), vehicle: saline with Tween-80.
[9] abbreviates: dose: 100.0 mg/kg/injection, schedule: Q01DX009 (ip), vehicle: saline with Tween-80.
Where [10] appears, read: dose: 60.0 mg/kg/injection, schedule: Q01DX005 (ip), vehicle: saline with Tween-80.
Setting [11] is: dose: 120.0 mg/kg/injection, schedule: Q01DX005 (ip), vehicle: saline with Tween-80.
[12] abbreviates: dose: 60.0 mg/kg/injection, schedule: Q01DX005 (ip), vehicle: Klucel (hydroxypropylcellulose) (HPC).
Where [13] appears, read: dose: 120.0 mg/kg/injection, schedule: Q01DX005 (ip), vehicle: Klucel (hydroxypropylcellulose) (HPC).
Setting [14] is: dose: 240.0 mg/kg/injection, schedule: Q01DX005 (ip), vehicle: saline with Tween-80.
[15] abbreviates: dose: 200.0 mg/kg/injection, schedule: Q04DX002 (ip), vehicle: saline with Tween-80.
Setting [16] is: dose: 400.0 mg/kg/injection, schedule: Q04DX002 (ip), vehicle: saline with Tween-80.

“And” between values parts separate entries of the source, which are not always exact repeats. Equal values may be shown once. Inconclusive results and toxic doses are left out.

With `CC(=O)Nc1ccn(C)c1[N+](=O)[O-]`, the T/C under setting [1] was 100 % of control, the T/C under setting [2] is 97 % of control and the T/C under setting [3] is 102 % of control.
In the case of `O=C(O)Cc1c(-c2ccccc2)n[nH]c1-c1[nH]nc(-c2ccccc2)c1CC(=O)O`, the T/C (dose: 60.0 mg/kg/injection, schedule: Q01DX005 (ip), vehicle: saline) is 95 % of control; the T/C (dose: 120.0 mg/kg/injection, schedule: Q01DX005 (ip), vehicle: saline) is 95 % of control; the T/C (dose: 240.0 mg/kg/injection, schedule: Q01DX005 (ip), vehicle: saline) was 104 % of control.
Consider `COP(=O)(O)OC.[Ti]`, for which the T/C is 100 % of control (dose: 25.0 mg/kg/injection, schedule: Q01DX001 (ip), vehicle: saline with Tween-80); 100 % of control (dose: 50.0 mg/kg/injection, schedule: Q01DX001 (ip), vehicle: saline with Tween-80); 96 % of control (dose: 100.0 mg/kg/injection, schedule: Q01DX001 (ip), vehicle: saline with Tween-80).
As for `S=c1ncc2[nH]cnc2[nH]1`, the T/C was 99 % of control (dose: 50.0 mg/kg/injection, schedule: Q01DX005 (ip), vehicle: Klucel (hydroxypropylcellulose) (HPC)); 105 % of control (dose: 100.0 mg/kg/injection, schedule: Q01DX005 (ip), vehicle: Klucel (hydroxypropylcellulose) (HPC)); 105 % of control (dose: 200.0 mg/kg/injection, schedule: Q01DX005 (ip), vehicle: Klucel (hydroxypropylcellulose) (HPC)).
Consider `CN=C(N)NN=C(c1cccc(F)c1)c1cccc(F)c1`, for which the T/C by setting is: (dose: 25.0 mg/kg/injection, schedule: Q04DX002 (ip), vehicle: saline with Tween-80) 100 % of control; (dose: 50.0 mg/kg/injection, schedule: Q04DX002 (ip), vehicle: saline with Tween-80) 102 % of control; under setting [4], 100 % of control.
In the case of `O=S(=O)(Nc1nccs1)c1ccc(NCc2c3ccccc3nc3cc(Cl)ccc23)cc1`, the T/C under setting [5] is 88 % of control, the T/C under setting [6] was 88 % of control and the T/C under setting [7] is 97 % of control.
With `O=C(Nc1nc2c(Cl)cccc2s1)C(F)(F)C(F)(F)C(F)(F)F` (tested in a mixture with another compound), the T/C under setting [8] is 114 % of control and the T/C under setting [9] was 101 % of control.
For the compound `S=C(SSC(=S)N1CCOCC1)N1CCOCC1`, the T/C is, setting by setting: (dose: 15.0 mg/kg/injection, schedule: Q01DX005 (ip), vehicle: saline with Tween-80) 97 % of control; (dose: 30.0 mg/kg/injection, schedule: Q01DX005 (ip), vehicle: saline with Tween-80) 102 % of control; under setting [10], 102 % of control and 107 % of control; under setting [11], 104 % of control.
Regarding `Cc1ccc2nc3c(nc2c1)n(-c1ccccc1)c(=O)n3-c1cccc(Cl)c1`, the T/C is 90 % of control under setting [5], 100 % of control under setting [6] and 101 % of control under setting [7].
For the compound `NC(=O)N/N=C1\CCn2cccc21`, the T/C under setting [10] is 92 % of control and the T/C under setting [11] was 95 % of control.
`O=C1Nc2ccccc2C1=Nc1cccc2cnccc12`: the T/C is, setting by setting: under setting [12], 100 % of control; under setting [13], 95 % of control; (dose: 240.0 mg/kg/injection, schedule: Q01DX005 (ip), vehicle: Klucel (hydroxypropylcellulose) (HPC)) 98 % of control.
For `Cc1cc2cc3c(c(C(=O)O)c2o1)C(=O)c1ccc2ccccc2c1C3`, the T/C is 97 % of control under setting [10], 101 % of control under setting [11] and 94 % of control under setting [14].
Consider `Cc1cc(C)nc(NS(=O)(=O)c2ccc(NC(=O)C(Cl)(Cl)Cl)cc2)n1`, for which the T/C is 104 % of control (dose: 6.25 mg/kg/injection, schedule: Q01DX005 (ip), vehicle: saline with Tween-80); 101 % of control (dose: 12.5 mg/kg/injection, schedule: Q01DX005 (ip), vehicle: saline with Tween-80); 94 % of control (dose: 25.0 mg/kg/injection, schedule: Q01DX005 (ip), vehicle: saline with Tween-80).
As to `CCCCNc1c(C(=O)OCC)cnc2c1cnn2CC`, the T/C runs as follows: under setting [4], 102 % of control; under setting [15], 102 % of control; under setting [16], 90 % of control.
For `Cc1cc(O[Si](C)(C)C)nc(O[Si](C)(C)C)n1`, the T/C was 106 % of control under setting [10], 110 % of control under setting [11] and 105 % of control under setting [14].
As for `CC1=NN(c2cc(S(=O)(=O)O)ccc2Cl)C(=O)C1`, the T/C was 101 % of control (dose: 50.0 mg/kg/injection, schedule: Q01DX009 (ip), vehicle: saline); 105 % of control (dose: 100.0 mg/kg/injection, schedule: Q01DX009 (ip), vehicle: saline); 97 % of control (dose: 200.0 mg/kg/injection, schedule: Q01DX009 (ip), vehicle: saline).
On to `Cc1c(-c2ccccc2)noc1-c1ccccc1`, for which the T/C is 106 % of control (dose: 100.0 mg/kg/injection, schedule: Q04DX003 (ip), vehicle: saline); 102 % of control (dose: 200.0 mg/kg/injection, schedule: Q04DX003 (ip), vehicle: saline); 101 % of control (dose: 400.0 mg/kg/injection, schedule: Q04DX003 (ip), vehicle: saline).
`CC(C)=CCC(OC(=O)C=C(C)C)c1cc(O)c2c(O)ccc(O)c2c1O.[O]=[V]` (configuration not stated): the T/C reads like this: under setting [4], 92 % of control; under setting [15], 92 % of control; under setting [16], 109 % of control.
Turning to `CCN1/C(=C/C=C2\CCC(/C=C/c3sc4ccc(Cl)cc4[n+]3CC)=C2N(c2ccccc2)c2ccccc2)Sc2ccc(Cl)cc21`, the T/C (dose: 6.25 mg/kg/injection, schedule: Q01DX009 (ip), vehicle: Klucel (hydroxypropylcellulose) (HPC)) is 156 % of control and the T/C (dose: 50.0 mg/kg/injection, schedule: Q01DX009 (ip), vehicle: Klucel (hydroxypropylcellulose) (HPC)) was 107 % of control.
On to `COC1OC2COC(c3ccc(Cl)cc3)OC2C2OC12` (configuration not stated), for which the T/C is 102 % of control (dose: 7.5 mg/kg/injection, schedule: Q04DX002 (ip), vehicle: saline with Tween-80); 101 % of control (dose: 15.0 mg/kg/injection, schedule: Q04DX002 (ip), vehicle: saline with Tween-80); 102 % of control (dose: 30.0 mg/kg/injection, schedule: Q04DX002 (ip), vehicle: saline with Tween-80).
In the case of `C=CCCCN1C(=O)CCCC1=O`, the T/C was 100 % of control under setting [10], 101 % of control under setting [11] and 101 % of control under setting [14].
In the case of `O=[N+]([O-])c1ccc(N/N=C\c2cccc3c(/C=N/Nc4ccc([N+](=O)[O-])cc4[N+](=O)[O-])c(Cl)n(-c4ccccc4)c23)c([N+](=O)[O-])c1`, the T/C by setting is: (dose: 25.0 mg/kg/injection, schedule: Q01DX001 (ip), vehicle: Klucel (hydroxypropylcellulose) (HPC)) 102 % of control; (dose: 50.0 mg/kg/injection, schedule: Q01DX001 (ip), vehicle: Klucel (hydroxypropylcellulose) (HPC)) 95 % of control; under setting [1], 93 % of control.
Take `C=CCC(C)(C#N)C1C=CCC1` (configuration not stated): the T/C is 100 % of control (dose: 100.0 mg/kg/injection, schedule: Q01DX009 (ip), vehicle: saline sonified); 100 % of control (dose: 200.0 mg/kg/injection, schedule: Q01DX009 (ip), vehicle: saline sonified); 122 % of control (dose: 400.0 mg/kg/injection, schedule: Q01DX009 (ip), vehicle: saline sonified).
For the compound `C=C1C[C@@H](C2OC3OC(C)(C)OC3C2OCc2ccccc2)OC1=O` (some centres not stated), the T/C is 116 % of control under setting [5] and 124 % of control under setting [6].
With `Cc1ccc(S(=O)(=O)C2(NC(=O)C3CC3)CC2)cc1`, the T/C was 89 % of control under setting [12] and 89 % of control under setting [13].
For the compound `Cc1ccc(S(=O)(=O)N/N=C/c2c(Br)nc3sccn23)cc1`, the T/C under setting [1] is 106 % of control, the T/C under setting [2] was 108 % of control and the T/C under setting [3] is 106 % of control.
On to `O=C(N=c1nc2ccccn2s1)c1ccccc1`, for which the T/C by setting is: under setting [8], 100 % of control; under setting [9], 98 % of control; (dose: 200.0 mg/kg/injection, schedule: Q01DX009 (ip), vehicle: saline with Tween-80) 104 % of control.
